Tested on: IgE antibodies from patients
Test: Wheat epitope mapping (2): overlapping 10-amino-acid peptide fragments shifted by one amino acid
Format: binding, human
Conditions: sequence without X; for Epitope sequence binding to IgE antibody, rank of the sequence (Key/Preferably/More preferably/Further preferably): serum of patient P50 (child, general immediate type allergy to wheat)
Procedure, shortened: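 Residual binding was banded as <30% none, 30–<50% poor, 50–<70% somewhat poor and ≥70% retained, relative to the parent overlapping sequence set to 100%. Values were chemiluminescent IgE signals from patient sera after subtracting secondary-antibody-only controls. The peptides were spot-synthesised 10-mers shifted by one amino acid.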

[1] = serum of patient G9 (adult, general immediate type allergy to wheat)
[2] = serum of patient G7 (adult, general immediate type allergy to wheat)

2307 (RVIERFEK; REGION 1..8: note = epitope) [compound 2307]
Epitope sequence binding to IgE antibody, rank of the sequence (Key/Preferably/More preferably) [1]: Preferably

2308 (ERFEK; REGION 1..5: note = epitope) [compound 2308]
Epitope sequence binding to IgE antibody, rank of the sequence (Key/Preferably/More preferably) [1]: Key

2314 (SRYDAIR; REGION 1..7: note = epitope) [compound 2314]
Epitope sequence binding to IgE antibody, rank of the sequence (Key/Preferably/More preferably) (serum of patient P25 (WDEIA)): Key

2315 (IIYS; REGION 1..4: note = epitope) [compound 2315]
Epitope sequence binding to IgE antibody, rank of the sequence (Key/Preferably/More preferably) (serum of patient P25 (WDEIA)): Key

2327 (RYDAIRAII; REGION 1..9: note = epitope) [compound 2327]
Epitope sequence binding to IgE antibody, rank of the sequence (Key/Preferably/More preferably) (serum of patient P34 (WDEIA)): Key

2328 (IIYSI; REGION 1..5: note = epitope) [compound 2328]
Epitope sequence binding to IgE antibody, rank of the sequence (Key/Preferably/More preferably) (serum of patient P34 (WDEIA)): Key

2330 (AIRAI; REGION 1..5: note = epitope) [compound 2330]
Epitope sequence binding to IgE antibody, rank of the sequence (Key/Preferably/More preferably) (serum of patient P53 (child, general immediate type allergy to wheat)): Key

2339 (AIIYS; REGION 1..5: note = epitope) [compound 2339]
Epitope sequence binding to IgE antibody, rank of the sequence (Key/Preferably/More preferably) (serum of patient G6 (adult, general immediate type allergy to wheat)): Key

2344 (HDIDRCAY; REGION 1..8: note = epitope) [compound 2344]
Epitope sequence binding to IgE antibody, rank of the sequence (Key/Preferably/More preferably) (serum of patient P9 (WDEIA)): Key

2345 (YVTEIVL; REGION 1..7: note = epitope) [compound 2345]
Epitope sequence binding to IgE antibody, rank of the sequence (Key/Preferably/More preferably) (serum of patient P9 (WDEIA)): More preferably

2346 (YVTEIV; REGION 1..6: note = epitope) [compound 2346]
Epitope sequence binding to IgE antibody, rank of the sequence (Key/Preferably/More preferably) (serum of patient P9 (WDEIA)): Preferably

2347 (VTEI; REGION 1..4: note = epitope) [compound 2347]
Epitope sequence binding to IgE antibody, rank of the sequence (Key/Preferably/More preferably) (serum of patient P9 (WDEIA)): Key

2350 (YVTEIVL; REGION 1..7: note = epitope) [compound 2350]
Epitope sequence binding to IgE antibody, rank of the sequence (Key/Preferably/More preferably) (serum of patient P12 (WDEIA)): More preferably

2356 (YVTEIV; REGION 1..6: note = epitope) [compound 2356]
Epitope sequence binding to IgE antibody, rank of the sequence (Key/Preferably/More preferably) (serum of patient P14 (WDEIA)): Key

2357 (HDIDRCAY; REGION 1..8: note = epitope) [compound 2357]
Epitope sequence binding to IgE antibody, rank of the sequence (Key/Preferably/More preferably) (serum of patient P18 (WDEIA)): Key

2358 (TEIV; REGION 1..4: note = epitope) [compound 2358]
Epitope sequence binding to IgE antibody, rank of the sequence (Key/Preferably/More preferably) (serum of patient P18 (WDEIA)): Key

2362 (VTEIV; REGION 1..5: note = epitope) [compound 2362]
Epitope sequence binding to IgE antibody, rank of the sequence (Key/Preferably/More preferably) (serum of patient P21 (WDEIA)): Key

2367 (VTEIV; REGION 1..5: note = epitope) [compound 2367]
Epitope sequence binding to IgE antibody, rank of the sequence (Key/Preferably/More preferably) (serum of patient P24 (WDEIA)): Preferably

2371 (HDIDRCAY; REGION 1..8: note = epitope) [compound 2371]
Epitope sequence binding to IgE antibody, rank of the sequence (Key/Preferably/More preferably) (serum of patient P26 (WDEIA)): Key

2372 (TEIVL; REGION 1..5: note = epitope) [compound 2372]
Epitope sequence binding to IgE antibody, rank of the sequence (Key/Preferably/More preferably) (serum of patient P26 (WDEIA)): Preferably

2373 (TEIV; REGION 1..4: note = epitope) [compound 2373]
Epitope sequence binding to IgE antibody, rank of the sequence (Key/Preferably/More preferably) (serum of patient P26 (WDEIA)): Key

2376 (AYVTEIV; REGION 1..7: note = epitope) [compound 2376]
Epitope sequence binding to IgE antibody, rank of the sequence (Key/Preferably/More preferably) (serum of patient P27 (WDEIA)): Preferably

2377 (YVTEIV; REGION 1..6: note = epitope) [compound 2377]
Epitope sequence binding to IgE antibody, rank of the sequence (Key/Preferably/More preferably) (serum of patient P27 (WDEIA)): Key

2379 (HDIDRCAY; REGION 1..8: note = epitope) [compound 2379]
Epitope sequence binding to IgE antibody, rank of the sequence (Key/Preferably/More preferably) (serum of patient P28 (WDEIA)): Key

2380 (DRCAYVTEIV; REGION 1..10: note = epitope) [compound 2380]
Epitope sequence binding to IgE antibody, rank of the sequence (Key/Preferably/More preferably) (serum of patient P28 (WDEIA)): Key

2383 (HDIDRCAY; REGION 1..8: note = epitope) [compound 2383]
Epitope sequence binding to IgE antibody, rank of the sequence (Key/Preferably/More preferably) (serum of patient P29 (WDEIA)): Key

2384 (YVTEIVL; REGION 1..7: note = epitope) [compound 2384]
Epitope sequence binding to IgE antibody, rank of the sequence (Key/Preferably/More preferably) (serum of patient P29 (WDEIA)): Preferably

2385 (VTEI; REGION 1..4: note = epitope) [compound 2385]
Epitope sequence binding to IgE antibody, rank of the sequence (Key/Preferably/More preferably) (serum of patient P29 (WDEIA)): Key

2388 (RCAYVTEIV; REGION 1..9: note = epitope) [compound 2388]
Epitope sequence binding to IgE antibody, rank of the sequence (Key/Preferably/More preferably) (serum of patient P32 (WDEIA)): Key

2390 (VTEIV; REGION 1..5: note = epitope) [compound 2390]
Epitope sequence binding to IgE antibody, rank of the sequence (Key/Preferably/More preferably) (serum of patient P33 (WDEIA)): Key

2393 (PHDIDRCAYV; REGION 1..10: note = epitope) [compound 2393]
Epitope sequence binding to IgE antibody, rank of the sequence (Key/Preferably/More preferably) (serum of patient P34 (WDEIA)): Preferably

2394 (HDIDRCAYV; REGION 1..9: note = epitope) [compound 2394]
Epitope sequence binding to IgE antibody, rank of the sequence (Key/Preferably/More preferably) (serum of patient P34 (WDEIA)): Key

2395 (TEIV; REGION 1..4: note = epitope) [compound 2395]
Epitope sequence binding to IgE antibody, rank of the sequence (Key/Preferably/More preferably) (serum of patient P34 (WDEIA)): Key

2398 (TEIVL; REGION 1..5: note = epitope) [compound 2398]
Epitope sequence binding to IgE antibody, rank of the sequence (Key/Preferably/More preferably) (serum of patient P35 (WDEIA)): Preferably

2399 (TEIV; REGION 1..4: note = epitope) [compound 2399]
Epitope sequence binding to IgE antibody, rank of the sequence (Key/Preferably/More preferably) (serum of patient P35 (WDEIA)): Key

2401 (VTEIV; REGION 1..5: note = epitope) [compound 2401]
Epitope sequence binding to IgE antibody, rank of the sequence (Key/Preferably/More preferably) (serum of patient P36 (WDEIA)): Preferably

2402 (TEIV; REGION 1..4: note = epitope) [compound 2402]
Epitope sequence binding to IgE antibody, rank of the sequence (Key/Preferably/More preferably) (serum of patient P36 (WDEIA)): Key

2405 (RCAYVTEIVL; REGION 1..10: note = epitope) [compound 2405]
Epitope sequence binding to IgE antibody, rank of the sequence (Key/Preferably/More preferably/Further preferably): More preferably

2406 (TEIVL; REGION 1..5: note = epitope) [compound 2406]
Epitope sequence binding to IgE antibody, rank of the sequence (Key/Preferably/More preferably/Further preferably): Preferably

2411 (TEIVL; REGION 1..5: note = epitope) [compound 2411]
Epitope sequence binding to IgE antibody, rank of the sequence (Key/Preferably/More preferably) (serum of patient P52 (child, general immediate type allergy to wheat)): Preferably

2415 (IDRCAYV; REGION 1..7: note = epitope) [compound 2415]
Epitope sequence binding to IgE antibody, rank of the sequence (Key/Preferably/More preferably) [2]: Preferably

2417 (RCAYVTEIVL; REGION 1..10: note = epitope) [compound 2417]
Epitope sequence binding to IgE antibody, rank of the sequence (Key/Preferably/More preferably) [2]: Preferably

2418 (TEIVL; REGION 1..5: note = epitope) [compound 2418]
Epitope sequence binding to IgE antibody, rank of the sequence (Key/Preferably/More preferably) [2]: Key

2423 (AWSGKTEN; REGION 1..8: note = epitope) [compound 2423]
Epitope sequence binding to IgE antibody, rank of the sequence (Key/Preferably/More preferably) (serum of patient P12 (WDEIA)): More preferably

2424 (AWSGK; REGION 1..5: note = epitope) [compound 2424]
Epitope sequence binding to IgE antibody, rank of the sequence (Key/Preferably/More preferably) (serum of patient P12 (WDEIA)): Preferably

2432 (QSTLKAWSGK; REGION 1..10: note = epitope) [compound 2432]
Epitope sequence binding to IgE antibody, rank of the sequence (Key/Preferably/More preferably) (serum of patient P26 (WDEIA)): More preferably

2435 (KAWSGKTEN; REGION 1..9: note = epitope) [compound 2435]
Epitope sequence binding to IgE antibody, rank of the sequence (Key/Preferably/More preferably) (serum of patient P26 (WDEIA)): Preferably

Reference: patent US20240393292A1, “ALLERGY ANTIGEN AND EPITOPE THEREOF” (HOYU CO., LTD., priority 2019, published 2024)
